Measured values as given in patent publication US20060069132A1, “Azolecarboxamide herbicides” (priority 2004, published 2006).

Columns and labels:
pigweed = assay: Test B pre-/postemergence herbicide test; type: in vivo, Amaranthus retroflexus
How it was run: (§1)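 Formulation: non-phytotoxic solvent mix with surfactant. Timing: preemergence on seed and postemergence on 2–18 cm plants, applied concurrently. Readout after 13–15 d greenhouse: visual 0–100 control rating against controls.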

morningglory = assay: Test B pre-/postemergence herbicide test; type: in vivo, Ipomoea coccinea
How it was run: (§2)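 Test chemicals in a non-phytotoxic solvent mixture with surfactant were applied preemergence to seeded species and postemergence to plants 2-18 cm tall (1- to 4-leaf stage); rice and barnyardgrass were also tested in a flooded paddy at the 2-leaf stage. Visual rating versus controls after 13-15 days in greenhouse, scale 0 (no effect) to 100 (complete control).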

wild oat = assay: Test B postemergence herbicide test; type: in vivo, Avena fatua
How it was run: (§3)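 Greenhouse test; postemergence application to plants at 1–4 leaves (2–18 cm); paddy species at 2 leaves; evaluated visually vs controls at 13–15 days; scale 0–100 (100 = complete control).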

rice = assay: Test B flooded paddy test; type: in vivo, Oryza sativa; conditions: 1000 g ai/ha, scale 0 to 100 (0 no effect, 100 complete control)
How it was run: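 Scale 0–100: zero equals no visible effect, 100 complete control, judged by eye relative to controls. Timing: 13 to 15 days in greenhouse post-treatment. Growth stage at spraying: two leaves (paddy) or one to four leaves, 2–18 cm (postemergence).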

barnyardgrass [1] = assay: Test B pre-/postemergence herbicide test; type: in vivo, Echinochloa crus-galli
How it was run: as §2

large crabgrass = assay: Test B pre-/postemergence herbicide test; type: in vivo, Digitaria sanguinalis
How it was run: as §1

blackgrass = assay: Test B postemergence herbicide test; type: in vivo, Alopecurus myosuroides
How it was run: (§4)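 Paddy species grown to the 2-leaf stage under flooding; blackgrass sprayed postemergence at 2–18 cm (1- to 4-leaf stage). Plants kept in a greenhouse for 13 to 15 days, then visually rated against controls on 0 (no effect) to 100 (complete control).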

giant foxtail = assay: Test B pre-/postemergence herbicide test; type: in vivo, Setaria faberi
How it was run: as §1

barnyardgrass [2] = assay: Test B flooded paddy test; type: in vivo, Echinochloa crus-galli; conditions: 1000 g ai/ha, scale 0 to 100 (0 no effect, 100 complete control)
How it was run: as §4

corn = assay: Test B pre-/postemergence herbicide test; type: in vivo, Zea mays
How it was run: as §1

[3] = tested on: small flower umbrella sedge; assay: Test B flooded paddy test; type: in vivo, Cyperus difformis; conditions: 1000 g ai/ha, scale 0 to 100 (0 no effect, 100 complete control)
How it was run: as §4

cocklebur = assay: Test B pre-/postemergence herbicide test; type: in vivo, Xanthium strumarium
How it was run: as §2

Surinam grass = assay: Test B pre-/postemergence herbicide test; type: in vivo, Urochloa decumbens
How it was run: as §1

lambsquarters = assay: Test B pre-/postemergence herbicide test; type: in vivo, Chenopodium album
How it was run: as §1

velvetleaf = assay: Test B pre-/postemergence herbicide test; type: in vivo, Abutilon theophrasti
How it was run: as §1

wheat = assay: Test B postemergence herbicide test; type: in vivo, Triticum aestivum; parameters: key to Wheat plant response rating: 0 = no effect, 100 = complete control
How it was run: as §3

ducksalad = assay: Test B flooded paddy test; type: in vivo, Heteranthera limosa; conditions: 1000 g ai/ha, scale 0 to 100 (0 no effect, 100 complete control)
How it was run: as §4

[4] = Postemergence, 250 g ai/ha, scale 0 (no effect) to 100 (complete control)
[5] = postemergence, 62 g ai/ha, scale 0 to 100
[6] = 500 g ai/ha, visual rating 0-100, 0 no effect, 100 complete control, preemergence
[7] = Postemergence, 500 g ai/ha, visual rating after 13 to 15 days, scale 0 (no effect) to 100 (complete control)
[8] = postemergence, 125 g ai/ha, visual rating, scale 0 (no effect) to 100 (complete control)
[9] = preemergence, 125 g ai/ha, 0 to 100 scale, 0 is no effect, 100 is complete control
[10] = postemergence, 500 g ai/ha, visual rating, scale 0 (no effect) to 100 (complete control)
[11] = 125 g ai/ha, 0 is no effect, 100 is complete control, preemergence
[12] = 125 g ai/ha, visual rating, scale 0 (no effect) to 100 (complete control), postemergence
[13] = Postemergence, 500 g ai/ha, scale 0 (no effect) to 100 (complete control)
[14] = postemergence, 500 g ai/ha, scale 0 to 100, 0 is no effect, 100 is complete control

CCOC(=O)c1ccc(F)c(NC(=O)c2cc(CC(C)C)nn2CC)c1 [Compound 72]
10: Lambsquarters plant response rating (lambsquarters; [4]) | Wheat plant response rating (wheat; [4]) | Wheat plant response rating (wheat; [5])
50: Blackgrass plant response rating (blackgrass; [4])
40: Blackgrass plant response rating (blackgrass; [5])
20: Oat, Wild plant response rating (wild oat; [5])
0: Pigweed plant response rating (pigweed; [4]) | Pigweed plant response rating (pigweed; [5]) | Morningglory plant response rating (morningglory; [4]) | Morningglory plant response rating (morningglory; [5]) | Rice plant response rating (rice; visual rating, 13 to 15 days) | Barnyardgrass plant response rating (barnyardgrass [1]; [4]) | Barnyardgrass plant response rating (barnyardgrass [1]; [5]) | Crabgrass, Large plant response rating (large crabgrass; [4]) | Crabgrass, Large plant response rating (large crabgrass; [5]) | Foxtail, Giant plant response rating (giant foxtail; [4]) | Foxtail, Giant plant response rating (giant foxtail; [5]) | Barnyardgrass plant response rating (barnyardgrass [2]; visual rating, 13 to 15 days) | Corn plant response rating (corn; [4]) | Corn plant response rating (corn; [5]) | Sedge, Umbrella plant response rating ([3]; visual rating, 13 to 15 days) | Cocklebur plant response rating (cocklebur; [4]) | Cocklebur plant response rating (cocklebur; [5]) | Surinam Grass plant response rating (Surinam grass; [4]) | Surinam Grass plant response rating (Surinam grass; [5]) | Lambsquarters plant response rating (lambsquarters; [5]) | Velvetleaf plant response rating (velvetleaf; [4]) | Velvetleaf plant response rating (velvetleaf; [5]) | Wheat plant response rating (wheat; 250 g ai/ha, scale 0 to 100, 0 no effect, 100 complete control, preemergence) | Ducksalad plant response rating (ducksalad; visual rating, 13 to 15 days)
30: Oat, Wild plant response rating (wild oat; [4])

COc1ccc(C(C)=NO)cc1NC(=O)c1cc(C(C)(C)C)nn1C [Compound 104]
60: Plant response rating, Pigweed (pigweed; [9]) | Plant response rating, Lambsquarters (lambsquarters; [9]) | Ducksalad plant response rating (ducksalad; visual rating, 13 to 15 days)
90: Plant response rating, Crabgrass, Large (large crabgrass; [6])
0: Plant response rating, Morningglory (morningglory; [7]) | Morningglory plant response rating (morningglory; [8]) | Plant response rating, Morningglory (morningglory; [9]) | Plant response rating, Oat, Wild (wild oat; [7]) | Oat, Wild plant response rating (wild oat; [8]) | Rice plant response rating (rice; visual rating, 13 to 15 days) | Plant response rating, Barnyardgrass (barnyardgrass [1]; [7]) | Barnyardgrass plant response rating (barnyardgrass [1]; [8]) | Plant response rating, Barnyardgrass (barnyardgrass [1]; [9]) | Plant response rating, Crabgrass, Large (large crabgrass; [7]) | Crabgrass, Large plant response rating (large crabgrass; [8]) | Plant response rating, Blackgrass (blackgrass; [7]) | Blackgrass plant response rating (blackgrass; [8]) | Plant response rating, Foxtail, Giant (giant foxtail; [7]) | Foxtail, Giant plant response rating (giant foxtail; [8]) | Plant response rating, Foxtail, Giant (giant foxtail; [9]) | Barnyardgrass plant response rating (barnyardgrass [2]; visual rating, 13 to 15 days) | Plant response rating, Corn (corn; [6]) | Plant response rating, Corn (corn; [7]) | Corn plant response rating (corn; [8]) | Plant response rating, Corn (corn; [9]) | Plant response rating, Cocklebur (cocklebur; [6]) | Plant response rating, Cocklebur (cocklebur; [7]) | Cocklebur plant response rating (cocklebur; [8]) | Plant response rating, Cocklebur (cocklebur; [9]) | Surinam Grass plant response rating (Surinam grass; [8]) | Plant response rating, Surinam Grass (Surinam grass; [9]) | Lambsquarters plant response rating (lambsquarters; [8]) | Plant response rating, Velvetleaf (velvetleaf; [6]) | Plant response rating, Velvetleaf (velvetleaf; [7]) | Velvetleaf plant response rating (velvetleaf; [8]) | Plant response rating, Velvetleaf (velvetleaf; [9]) | Plant response rating, Wheat (wheat; [7]) | Wheat plant response rating (wheat; [8])
70: Plant response rating, Pigweed (pigweed; [6]) | Sedge, Umbrella plant response rating ([3]; visual rating, 13 to 15 days)
20: Plant response rating, Morningglory (morningglory; [6]) | Plant response rating, Foxtail, Giant (giant foxtail; [6]) | Plant response rating, Surinam Grass (Surinam grass; [6]) | Plant response rating, Lambsquarters (lambsquarters; [7])
80: Plant response rating, Barnyardgrass (barnyardgrass [1]; [6]) | Plant response rating, Crabgrass, Large (large crabgrass; [9]) | Plant response rating, Lambsquarters (lambsquarters; [6])
10: Plant response rating, Pigweed (pigweed; [7]) | Pigweed plant response rating (pigweed; [8]) | Plant response rating, Surinam Grass (Surinam grass; [7])

C=CCn1nc(C(C)(C)C)cc1C(=O)Nc1cccc(C(C)=O)c1 [Compound 129]
20: Plant response rating, Foxtail, Giant (giant foxtail; [6]) | Plant response rating, Cocklebur (cocklebur; [6]) | Surinam Grass plant response rating (Surinam grass; [10]) | Plant response rating, Lambsquarters (lambsquarters; [6]) | Velvetleaf plant response rating (velvetleaf; [10])
60: Plant response rating, Barnyardgrass (barnyardgrass [1]; [6]) | Cocklebur plant response rating (cocklebur; [10]) | Cocklebur plant response rating (cocklebur; [5])
90: Plant response rating, Crabgrass, Large (large crabgrass; [6])
30: Plant response rating, Pigweed (pigweed; [6]) | Barnyardgrass plant response rating (barnyardgrass [2]; visual rating, 13 to 15 days)
10: Pigweed plant response rating (pigweed; [10]) | Rice plant response rating (rice; visual rating, 13 to 15 days) | Crabgrass, Large plant response rating (large crabgrass; [10]) | Foxtail, Giant plant response rating (giant foxtail; [10]) | Foxtail, Giant plant response rating (giant foxtail; [5]) | Plant response rating, Surinam Grass (Surinam grass; [6]) | Lambsquarters plant response rating (lambsquarters; [10]) | Plant response rating, Velvetleaf (velvetleaf; [6])
80: Sedge, Umbrella plant response rating ([3]; visual rating, 13 to 15 days)
70: Ducksalad plant response rating (ducksalad; visual rating, 13 to 15 days)
0: Pigweed plant response rating (pigweed; [5]) | Plant response rating, Morningglory (morningglory; [6]) | Oat, Wild plant response rating (wild oat; [10]) | Oat, Wild plant response rating (wild oat; [5]) | Barnyardgrass plant response rating (barnyardgrass [1]; [10]) | Barnyardgrass plant response rating (barnyardgrass [1]; [5]) | Crabgrass, Large plant response rating (large crabgrass; [5]) | Blackgrass plant response rating (blackgrass; [10]) | Blackgrass plant response rating (blackgrass; [5]) | Plant response rating, Corn (corn; [6]) | Surinam Grass plant response rating (Surinam grass; [5]) | Lambsquarters plant response rating (lambsquarters; [5]) | Velvetleaf plant response rating (velvetleaf; [5]) | Wheat plant response rating (wheat; [10]) | Wheat plant response rating (wheat; [5])

C#CCNC(=O)c1cccc(NC(=O)c2nn(C(C)C)nc2CC)c1 [Compound 379]
50: Pigweed plant response rating (pigweed; [13]) | Rice plant response rating (rice) | Lambsquarters plant response rating (lambsquarters; [13])
70: Sedge, Umbrella plant response rating [3] | Ducksalad plant response rating (ducksalad)
10: Plant response rating (0 to 100 scale), Morningglory (morningglory; [11]) | Crabgrass, Large plant response rating (large crabgrass; [12]) | Crabgrass, Large plant response rating (large crabgrass; [14]) | Foxtail, Giant plant response rating (giant foxtail; [12]) | Foxtail, Giant plant response rating (giant foxtail; [14]) | Cocklebur plant response rating (cocklebur; [14]) | Surinam Grass plant response rating (Surinam grass; [12]) | Plant response rating (0 to 100 scale), Velvetleaf (velvetleaf; [11]) | Velvetleaf plant response rating (velvetleaf; [13])
20: Plant response rating (0 to 100 scale), Pigweed (pigweed; [11]) | Pigweed plant response rating (pigweed; [12]) | Morningglory plant response rating (morningglory; [12]) | Plant response rating (0 to 100 scale), Crabgrass, Large (large crabgrass; [11]) | Surinam Grass plant response rating (Surinam grass; [13]) | Lambsquarters plant response rating (lambsquarters; [12]) | Wheat plant response rating (wheat; 500 g ai/ha, scale 0 to 100, 0 no effect, 100 complete control, preemergence)
0: Oat, Wild plant response rating (wild oat; [12]) | Oat, Wild plant response rating (wild oat; [13]) | Plant response rating (0 to 100 scale), Barnyardgrass (barnyardgrass [1]; [11]) | Barnyardgrass plant response rating (barnyardgrass [1]; [12]) | Barnyardgrass plant response rating (barnyardgrass [1]; [14]) | Blackgrass plant response rating (blackgrass; [12]) | Blackgrass plant response rating (blackgrass; [14]) | Plant response rating (0 to 100 scale), Foxtail, Giant (giant foxtail; [11]) | Plant response rating (0 to 100 scale), Corn (corn; [11]) | Corn plant response rating (corn; [12]) | Corn plant response rating (corn; [14]) | Plant response rating (0 to 100 scale), Cocklebur (cocklebur; [11]) | Cocklebur plant response rating (cocklebur; [12]) | Plant response rating (0 to 100 scale), Surinam Grass (Surinam grass; [11]) | Plant response rating (0 to 100 scale), Lambsquarters (lambsquarters; [11]) | Velvetleaf plant response rating (velvetleaf; [12]) | Wheat plant response rating (wheat; [12]) | Wheat plant response rating (wheat; [13])
40: Morningglory plant response rating (morningglory; [13]) | Barnyardgrass plant response rating (barnyardgrass [2])
